“And” between values parts separate entries of the source, which are not always exact repeats. Equal entries are not always repeated. Toxic doses and inconclusive results are not listed. Rule for the calls: active = survival T/C of 150% or more; inactive = T/C below 125% in these data.
System: CD2F1 mice, L1210 leukemia ip, survival T/C
Assay: NCI In Vivo Anticancer Drug Screen. Data for tumor model L1210 Leukemia (intraperitoneal) in CD2F1 (CDF1) mice
Conditions: higher = longer survival
In short: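 Tumor-bearing mice (transplanted tumor) were split into treated and vehicle control groups, and the measured endpoint of each treated group was divided by that of its vehicle controls.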

[1] = endpoint: mean survival time, dose: 100.0 mg/kg/injection, schedule: Q04DX003 (ip), vehicle: saline with Tween-80
[2] = endpoint: mean survival time, dose: 200.0 mg/kg/injection, schedule: Q04DX003 (ip), vehicle: saline with Tween-80
[3] = endpoint: mean survival time, dose: 400.0 mg/kg/injection, schedule: Q04DX003 (ip), vehicle: saline with Tween-80
[4] = endpoint: mean survival time, dose: 50.0 mg/kg/injection, schedule: Q01DX009 (ip), vehicle: saline with Tween-80
[5] = endpoint: mean survival time, dose: 100.0 mg/kg/injection, schedule: Q04DX003 (ip), vehicle: saline
[6] = endpoint: mean survival time, dose: 100.0 mg/kg/injection, schedule: Q01DX009 (ip), vehicle: saline with Tween-80
[7] = endpoint: mean survival time, dose: 200.0 mg/kg/injection, schedule: Q01DX009 (ip), vehicle: saline with Tween-80
[8] = endpoint: mean survival time, dose: 200.0 mg/kg/injection, schedule: Q04DX003 (ip), vehicle: saline

Measured: T/C

CS(=O)(=O)OCCn1c(=O)n(CCOS(C)(=O)=O)c(=O)n(CCOS(C)(=O)=O)c1=O
inactive: [1] 102 % of control | [2] 98 % of control | [3] 93 % of control

O=c1ccn(Cc2ccc([N+](=O)[O-])cc2)c(=O)[nH]1
inactive: endpoint: mean survival time, dose: 100.0 mg/kg/injection, schedule: Q01DX001 (ip), vehicle: saline with Tween-80 94 % of control | endpoint: mean survival time, dose: 200.0 mg/kg/injection, schedule: Q01DX001 (ip), vehicle: saline with Tween-80 90 % of control | endpoint: mean survival time, dose: 400.0 mg/kg/injection, schedule: Q01DX001 (ip), vehicle: saline with Tween-80 98 % of control

NC(N)=NC1CCCC1
inactive: endpoint: mean survival time, dose: 25.0 mg/kg/injection, schedule: Q01DX009 (ip), vehicle: saline with Tween-80 102 % of control | endpoint: mean survival time, dose: 25.0 mg/kg/injection, schedule: Q04DX003 (ip), vehicle: saline 100 % of control | [4] 100 % of control | endpoint: mean survival time, dose: 50.0 mg/kg/injection, schedule: Q04DX003 (ip), vehicle: saline 91 % of control | [5] 100 % of control

COc1cc(OC)c(NC(=O)Oc2ccc3ccccc3c2)cc1Cl
inactive: [4] 94 % of control | [6] 94 % of control | [7] 97 % of control

O=C(O)C(O)C(O)C(O)C(O)C(O)CO.[NH-]C1CCCCC1[NH-].[Pt+2] (centres undefined)
active: endpoint: median survival time, dose: 12.5 mg/kg/injection, schedule: Q04DX003 (ip), vehicle: saline 153 % of control and 178 % of control | endpoint: median survival time, dose: 25.0 mg/kg/injection, schedule: Q04DX003 (ip), vehicle: saline 266 % of control and 297 % of control | endpoint: median survival time, dose: 50.0 mg/kg/injection, schedule: Q04DX003 (ip), vehicle: saline 175 % of control and 375 % of control
inactive: endpoint: median survival time, dose: 100.0 mg/kg/injection, schedule: Q04DX003 (ip), vehicle: saline 103 % of control

O=C(O)c1cccc2ccc(Br)cc12
inactive: endpoint: median survival time, dose: 50.0 mg/kg/injection, schedule: Q04DX002 (ip), vehicle: saline with Tween-80 100 % of control | endpoint: median survival time, dose: 100.0 mg/kg/injection, schedule: Q04DX002 (ip), vehicle: saline with Tween-80 100 % of control | endpoint: median survival time, dose: 200.0 mg/kg/injection, schedule: Q04DX002 (ip), vehicle: saline with Tween-80 111 % of control

CNC(=O)NC1CCC(C)CC1 (centres undefined)
inactive: [5] 98 % of control | [8] 96 % of control | endpoint: mean survival time, dose: 400.0 mg/kg/injection, schedule: Q04DX003 (ip), vehicle: saline 96 % of control

CCCCCC(/C=N\N=C\c1ccco1)=C\c1ccccc1
inactive: [1] 93 % of control | [2] 93 % of control | [3] 96 % of control

CCC[CH2][Sn]1([CH2]CCC)[O]C2C(CO)OC(n3ccc(N)nc3=O)C2[O]1 (centres undefined)
inactive: endpoint: mean survival time, dose: 0.78 mg/kg/injection, schedule: Q01DX009 (ip), vehicle: Klucel (hydroxypropylcellulose) (HPC) 116 % of control | endpoint: mean survival time, dose: 1.56 mg/kg/injection, schedule: Q01DX005 (ip), vehicle: other 104 % of control | endpoint: mean survival time, dose: 1.56 mg/kg/injection, schedule: Q01DX009 (ip), vehicle: Klucel (hydroxypropylcellulose) (HPC) 113 % of control | endpoint: mean survival time, dose: 3.13 mg/kg/injection, schedule: Q01DX005 (ip), vehicle: other 104 % of control | endpoint: mean survival time, dose: 6.25 mg/kg/injection, schedule: Q01DX005 (ip), vehicle: other 113 % of control | endpoint: mean survival time, dose: 6.25 mg/kg/injection, schedule: Q01DX009 (ip), vehicle: Klucel (hydroxypropylcellulose) (HPC) 115 % of control

N=C(N)SCCSC(=N)N
inactive: endpoint: mean survival time, dose: 25.0 mg/kg/injection, schedule: Q01DX009 (ip), vehicle: saline 92 % of control | endpoint: mean survival time, dose: 50.0 mg/kg/injection, schedule: Q01DX009 (ip), vehicle: saline 94 % of control | endpoint: mean survival time, dose: 100.0 mg/kg/injection, schedule: Q01DX009 (ip), vehicle: saline 94 % of control | [5] 100 % of control | [8] 105 % of control

Cc1ccc(NC(=S)N2CCCC2)cc1
inactive: [6] 97 % of control | [7] 91 % of control | endpoint: mean survival time, dose: 400.0 mg/kg/injection, schedule: Q01DX009 (ip), vehicle: saline with Tween-80 95 % of control

CC/C(=N/O)C(N)=O
inactive: [1] 100 % of control | [2] 103 % of control | [3] 105 % of control
